Laboratory results as given in publication PMC4728560 (Scientific Reports, 2016).

Test system: Bcl-xL inhibition of cBidmt1/Bax
Assay: In vitro reconstitution liposome permeabilization, cBidmt1/Bax with Bcl-xL
Assay type: biochemical
Conditions: ANTS/DPX liposomes, 100 nM Bax, 20 nM cBidmt1, pre-incubation pH 9, 45 min, 37 °C, 5 h, pH 7
Description: This purified assay system measures direct interactions in which full-length untagged Bcl-xL inhibits permeabilization by binding full-length caspase 8 cleaved Bid (cBid) and/or full-length untagged Bax, thereby preventing Bax oligomerization in membranes. […] In these assays liposome permeabilization by activated Bax releases the entrapped fluorophore/quencher pair 8-aminonaphthalene-1,3,6-trisulfonic acid (ANTS)/p-xylene-bispyridinium (DPX), resulting in a measurable increase of fluorescence.
(A–E) in vitro reconstitution assay on liposome permeabilization. […] The treated Bcl-xL was then added to reactions containing ANTS-DPX liposomes, 100 nM Bax and 20 nM of either cBid (A,B) or cBidmt1(C,D) at pH 7. Liposome permeabilization was quantified by fluorescence after 5h incubation at 37 °C where 100% release was defined as the fluorescence change due to lipid solubilization with 1% Triton X-100. […] Error bars, std. dev. n = 3. […] Cyto c extra-mito: in the supernatant, analysed by Western blot. […]
Figure 10 A,B) or cBid mt1 (Supplementary Figure 10 C,D) at pH 7 to quantify the activity of Bcl-xL inhibition of liposome permeablization. […]
then added to reactions containing ANTS-DPX liposomes, 100nM Bax and 20nM of either c Bid (A, C) or cBid mt1(B, D) at pH 7 and liposome permeabilization was quantified by fluorescence […]

Substance: TCTP: Translationally Controlled Tumor Protein (TCTP/tpt1), recombinant full-length
- effect on Bcl-xL inhibition of cBidmt1/Bax-mediated liposome permeabilization: enhanced Bcl-xL inhibition
